Values quoted from earlier work, collected in patent publication US20230405095A1, “DOSING REGIMEN” (VIIV HEALTHCARE UK (NO. 7) LIMITED, priority 2022, published 2023).

B1: rHuPH20: soluble hyaluronidase composition produced upon expression in a mammalian cell of nucleic acid encoding residues 36-482 of SEQ ID NO:1 (protein, listed as Homo sapiens)
chain: LNFRAPPVIPNVPFLWAWNAPSEFCLGKFDEPLDMSLFSFIGSPRINATGQGVTIFYVDRLGYYPYIDSITGVTVNGGIPQKISLQDHLDKAKKDITFYMPVDNLGMAVIDWEEWRPTWARNWKPKDVYKNRSIELVQQQNVQLSLTEATEKAKQEFEKAGKDFLVETIKLGKLLRPNHLWGYYLFPDCYNHHYKKPGYNGSCFNVEIKRNDDLSWLWNESTALYPSIYLNTQQSPVAATLYVRNRVREAIRVSKIPDAKSPLPVFAYTRIVFTDQVLKFLSQDELVYTFGETVALGASGIVIWGTLSIMRSMKSCLLLDNYMETILNPYIINVTLAAKMCSQVLCQEQGVCIRKNWNSSDYLHLNPDNFAIQLEKGGKFTVRGKPTLEDLEQFSEKFYCSCYSTLSCKEKADVKDTDAVDVCIADGVCIDAFLKPPMETEEPQIFY
modifications: precursor human PH20

Legend:
[1] = after injection of hyaluronidase; cited from earlier work
[2] = in vivo, sc; cited from earlier work

| Molecule | time until permeability barrier is restored to pre-injection levels [1] [h] | subcutaneous doses shown to be well tolerated [2] |
| --- | --- | --- |
| hyaluronidase | 24 to 48 |  |
| B1 |  | up to 96,000 U |
